Assay results from the supplement of paper PMC10132981, “Formate overflow drives toxic folate trapping in MTHFD1 inhibited cancer cells” (Nature Metabolism, 2023).

System: SW620 MTHFD2-/-
Assay: cell viability relative to vehicle (resazurin, 96 h); higher = more viable
Settings: base medium: RPMI + dialysed FBS
Method: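 SW620 WT or MTHFD2-/- cells were treated for 96 h with a compound dilution series (log10 M) in RPMI with normal or dialysed FBS. Viability was read by resazurin and is given as % of vehicle.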

CN(Cc1cnc2nc(N)nc(N)c2n1)c1ccc(C(=O)N[C@@H](CCC(=O)O)C(=O)O)cc1 [methotrexate]
Settings	cell viability [%]
log10 compound concentration (M): -7.43136, supplement / serum: No metabolite	7.722
log10 compound concentration (M): -7.43136, supplement / serum: Sodium Formate	7.53
log10 compound concentration (M): -7.43136, supplement / serum: Vehicle	7.22
log10 compound concentration (M): -7.90849, supplement / serum: 50 μM Hypoxanthine	70.7
log10 compound concentration (M): -7.90849, supplement / serum: 50 μM Thymidine	12.3
log10 compound concentration (M): -7.90849, supplement / serum: 50 μM Thymidine + 50 μM Hypoxanthine	106
log10 compound concentration (M): -7.90849, supplement / serum: Hypoxanthine	54.5
log10 compound concentration (M): -7.90849, supplement / serum: Hypoxanthine+Sodium Formate	55.4
log10 compound concentration (M): -7.90849, supplement / serum: Hypoxanthine+Sodium Formate+Thymidine	102
log10 compound concentration (M): -7.90849, supplement / serum: No metabolite	10.5
log10 compound concentration (M): -7.90849, supplement / serum: Sodium Formate	11.5
log10 compound concentration (M): -7.90849, supplement / serum: Vehicle	8.29
log10 compound concentration (M): -8.38561, supplement / serum: 50 μM Hypoxanthine	76.3
log10 compound concentration (M): -8.38561, supplement / serum: 50 μM Thymidine	14.7
log10 compound concentration (M): -8.38561, supplement / serum: 50 μM Thymidine + 50 μM Hypoxanthine	102
log10 compound concentration (M): -8.38561, supplement / serum: Hypoxanthine	74.7
log10 compound concentration (M): -8.38561, supplement / serum: Hypoxanthine+Sodium Formate	79.4
log10 compound concentration (M): -8.38561, supplement / serum: Hypoxanthine+Sodium Formate+Thymidine	84.7
log10 compound concentration (M): -8.38561, supplement / serum: No metabolite	9.121
log10 compound concentration (M): -8.38561, supplement / serum: Sodium Formate	33.1
log10 compound concentration (M): -8.38561, supplement / serum: Vehicle	15.5
log10 compound concentration (M): -8.86273, supplement / serum: 50 μM Hypoxanthine	92.6
log10 compound concentration (M): -8.86273, supplement / serum: 50 μM Thymidine	66.7
log10 compound concentration (M): -8.86273, supplement / serum: 50 μM Thymidine + 50 μM Hypoxanthine	109
log10 compound concentration (M): -8.86273, supplement / serum: Hypoxanthine	92.5
log10 compound concentration (M): -8.86273, supplement / serum: Hypoxanthine+Sodium Formate	97.5
log10 compound concentration (M): -8.86273, supplement / serum: Hypoxanthine+Sodium Formate+Thymidine	91.4
log10 compound concentration (M): -8.86273, supplement / serum: No metabolite	47.4
log10 compound concentration (M): -8.86273, supplement / serum: Sodium Formate	72.7
log10 compound concentration (M): -8.86273, supplement / serum: Vehicle	45.5
log10 compound concentration (M): -9.33985, supplement / serum: 50 μM Hypoxanthine	100
log10 compound concentration (M): -9.33985, supplement / serum: 50 μM Thymidine	87.7
log10 compound concentration (M): -9.33985, supplement / serum: 50 μM Thymidine + 50 μM Hypoxanthine	102
log10 compound concentration (M): -9.33985, supplement / serum: Hypoxanthine	92.7
log10 compound concentration (M): -9.33985, supplement / serum: Hypoxanthine+Sodium Formate	96.4
log10 compound concentration (M): -9.33985, supplement / serum: Hypoxanthine+Sodium Formate+Thymidine	98.6
log10 compound concentration (M): -9.33985, supplement / serum: No metabolite	82.1
log10 compound concentration (M): -9.33985, supplement / serum: Sodium Formate	101
log10 compound concentration (M): -9.33985, supplement / serum: Vehicle	80.1
log10 compound concentration (M): -9.81697, supplement / serum: 50 μM Hypoxanthine	95.3
log10 compound concentration (M): -9.81697, supplement / serum: 50 μM Thymidine	109.8
log10 compound concentration (M): -9.81697, supplement / serum: 50 μM Thymidine + 50 μM Hypoxanthine	104
log10 compound concentration (M): -9.81697, supplement / serum: Hypoxanthine	102
log10 compound concentration (M): -9.81697, supplement / serum: Hypoxanthine+Sodium Formate	100
log10 compound concentration (M): -9.81697, supplement / serum: Hypoxanthine+Sodium Formate+Thymidine	98.5
log10 compound concentration (M): -9.81697, supplement / serum: No metabolite	97.9
log10 compound concentration (M): -9.81697, supplement / serum: Sodium Formate	97.9
log10 compound concentration (M): -9.81697, supplement / serum: Vehicle	94.8
log10 compound concentration (M): -10.2941, supplement / serum: 50 μM Hypoxanthine	105
log10 compound concentration (M): -10.2941, supplement / serum: 50 μM Thymidine	93.5
log10 compound concentration (M): -10.2941, supplement / serum: 50 μM Thymidine + 50 μM Hypoxanthine	103
log10 compound concentration (M): -10.2941, supplement / serum: Hypoxanthine	91
log10 compound concentration (M): -10.2941, supplement / serum: Hypoxanthine+Sodium Formate	96.2
log10 compound concentration (M): -10.2941, supplement / serum: Hypoxanthine+Sodium Formate+Thymidine	100
log10 compound concentration (M): -10.2941, supplement / serum: No metabolite	94.6
log10 compound concentration (M): -10.2941, supplement / serum: Sodium Formate	95.9
log10 compound concentration (M): -10.2941, supplement / serum: Vehicle	87.6
log10 compound concentration (M): -10.7712, supplement / serum: 50 μM Hypoxanthine	88.2
log10 compound concentration (M): -10.7712, supplement / serum: 50 μM Thymidine	96.2
log10 compound concentration (M): -10.7712, supplement / serum: 50 μM Thymidine + 50 μM Hypoxanthine	110
log10 compound concentration (M): -10.7712, supplement / serum: Hypoxanthine	98.1
log10 compound concentration (M): -10.7712, supplement / serum: Hypoxanthine+Sodium Formate	92.28
log10 compound concentration (M): -10.7712, supplement / serum: Hypoxanthine+Sodium Formate+Thymidine	103
log10 compound concentration (M): -10.7712, supplement / serum: No metabolite	111
log10 compound concentration (M): -10.7712, supplement / serum: Sodium Formate	95
log10 compound concentration (M): -10.7712, supplement / serum: Vehicle	95.6
